{"source": "patent US6492338B1", "about": "“Therapeutic agents” (Takara Shuzo Co., Ltd., priority 1998, dated 2002)", "key": {"Aldose reductase (AR)": {"molecular_target": "T1, Aldose reductase (AR) (Homo sapiens, UniProt P15121)", "T1 construct": "purchased Wako Pure Chemical Industries 012-13991", "assay": "AR (aldose reductase) inhibitory activity, NADPH/methylglyoxal, absorbance at 340 nm", "type": "biochemical", "protocol": "2,5-dihydroxytetrahydro-2-furancarboxylic acid was added to an AR reaction system to determine the AR inhibitory activity.\nNADPH (Nacalai Tesque) as a hydrogen donor and methylglyoxal (Nacalai Tesque) as a substrate for the enzyme were used. A commercially available enzyme solution (Wako Pure Chemical Industries, code 012-13991) was diluted. for use as AR.\nThe AR activity was measured as follows.\n40 μl of sterile pure water, 20 μl of 1 mM aqueous NADPH solution and 10 μl of enzyme dilution were added to 100 μl of 200 mM phosphate buffer (pH 6.2). 10 μl of sterile pure water was further added to the mixture. After 20 μl of 100 mM aqueous methylglyoxal solution was added thereto, the change in absorbance at 340 nm was monitored at room temperature for 3 minutes. The enzymatic activity was determined on the basis of the change in absorbance per minute. Next, aqueous solution of 2,5-dihydroxytetrahydro-2-furancarboxylic acid at a varying concentration was added to the reaction system as described above in place of 10 μl of sterile pure water. The enzymatic activity was then determined as described above.\nThe AR inhibitory activity of 2,5-dihydroxytetrahydro-2-furancarboxylic acid was determined based on the enzymatic activity inhibition rate calculated according to the following equation:\nEnzymatic activity inhibition rate (%)={1-(enzymatic activity with the addition of aqueous 2,5-dihydroxytetrahydro-2-furancarboxylic acid solution)/(enzymatic activity with the addition of water)}×100."}, "[1]": {"test_system": "alcohol dehydrogenase (ADH)", "assay": "ADH inhibitory activity, NAD/ethanol, absorbance at 340 nm", "type": "biochemical", "details": "final concentration 10.8 μg/ml (IC50 for AR activity)", "protocol": "Next, 2,5-dihydroxytetrahydro-2-furancarboxylic acid was added to an ADH reaction system to determine the ADH inhibitory activity.\nA commercially available lyophilized product (Nacalai Tesque, code 012-83) was dissolved in water for use as ADH. NAD (Nacalai Tesque) as a hydrogen donor and ethanol (Nacalai Tesque) as a substrate for the enzyme were used.\nThe ADH activity was measured as follows.\n50 μl of water, 20 μl of 3 mM aqueous NAD solution and 10 μl of enzyme solution were added to 100 μl of 200 mM phosphate buffer (pH 6.2). 10 μl of sterile pure water was further added to the mixture. After 10 μl of 60% ethanol was added thereto, the change in absorbance at 340 nm was monitored at room temperature for 3 minutes. The enzymatic activity was determined on the basis of the change in absorbance per minute.\nNext, aqueous solution of 2,5-dihydroxytetrahydro-2-furancarboxylic acid at a final concentration of 10.8 μg/ml and sterile pure water were added to the reaction system as described above in place of 10 μl of sterile pure water. The enzymatic activity was then determined as described above. The ADH enzymatic activity inhibition rate was calculated according to the above-mentioned equation based on the enzymatic activity."}}, "data": [{"compound": "O=C(O)C1(O)CCC(O)O1", "note": "(stereo not drawn) [2,5-dihydroxytetrahydro-2-furancarboxylic acid]", "values": [{"measurement": "IC50", "setting": "Aldose reductase (AR); calculated from concentration and AR activity inhibition rate of Table 1, read-out: concentration in the enzymatic reaction mixture that results in the activity inhibition rate of 50% (IC50), AR (converted)", "result": "~72.9", "unit": "µM"}, {"measurement": "Activity inhibition rate (AR)", "setting": "Aldose reductase (AR); concentration in enzymatic reaction system 0.5 μg/ml", "result": 8.1, "unit": "%"}, {"measurement": "Activity inhibition rate (AR)", "setting": "Aldose reductase (AR); concentration in enzymatic reaction system 5 μg/ml", "result": 34.8, "unit": "%"}, {"measurement": "Activity inhibition rate (AR)", "setting": "Aldose reductase (AR); concentration in enzymatic reaction system 50 μg/ml", "result": 81.6, "unit": "%"}, {"measurement": "Activity inhibition rate (AR)", "setting": "Aldose reductase (AR); concentration in enzymatic reaction system 500 μg/ml", "result": 96.3, "unit": "%"}, {"measurement": "ADH activity inhibition rate", "setting": "[1]", "result": 7.1, "unit": "%"}]}]}
